Reference: patent publication US20020028936A1, “1,3-disubstituted indolin-2-ones for neoplasia” (priority 1999, published 2002)

Assays:
[1] = test system: human colon carcinoma cell line, HT-29; test: Growth inhibition, Sulforhodamine B (SRB) protein binding assay; type: cell-based; conditions: HT-29 cells, six days continuous exposure, read-out: IC50 value (concentration of drug needed to inhibit tumor cell growth by 50%)
Experimental: The compound of Example No. 1 was assayed for their growth inhibitory activity on the human colon carcinoma cell line, HT-29 obtained from ATCC (Rockville, Md.), to ascertain the degree of growth inhibition. Growth inhibition of this cell line is indicative of a benefit on precancerous lesions and neoplasms. The cell line and growth inhibition assay employed for such experiments are well characterized, and are used to evaluate the anti-neoplastic properties of substances. The assay is used by the United States National Cancer Institute in its screening program for new anti-cancer drugs.
Drug stock solutions were made in 100% DMSO and were then diluted with RPMI media for cell culture testing. All drug solutions were prepared fresh on the day of testing. The cultured cells were obtained at passage #99 and grown in RPMI media supplemented with 5% fetal calf serum, and 2 mM glutamine, 100 U/ml penicillin, […] streptomycin, and 0.25 μg/ml amphotericin. The cultures were maintained in a humidified atmosphere of 95% air and 5% CO2 at 37° C. The cultures were passaged at preconfluent densities using a solution of 0.05% trypsin and 0.53 mM EDTA. […]
Tumor cell growth inhibition was assessed using the Sulforhodamine B (SRB) protein binding assay. […] The dye was then solubilized, and the optical density of the resulting solution was determined on a 96-well plate reader. […]

[2] = molecular target: T1, purified cyclooxygenase Type I (Ovis aries, UniProt P05979); test: Cyclooxygenase (COX) inhibition, purified COX; type: biochemical; conditions: 100 μM compound; COX purified from ram seminal vesicles; arachidonic acid 100 μM, 2.0 min at 37° C.
T1 construct: The COX was purified from ram seminal vesicles; from tissue; host or cells: ram seminal vesicles
T1 sequence (P05979 25-600): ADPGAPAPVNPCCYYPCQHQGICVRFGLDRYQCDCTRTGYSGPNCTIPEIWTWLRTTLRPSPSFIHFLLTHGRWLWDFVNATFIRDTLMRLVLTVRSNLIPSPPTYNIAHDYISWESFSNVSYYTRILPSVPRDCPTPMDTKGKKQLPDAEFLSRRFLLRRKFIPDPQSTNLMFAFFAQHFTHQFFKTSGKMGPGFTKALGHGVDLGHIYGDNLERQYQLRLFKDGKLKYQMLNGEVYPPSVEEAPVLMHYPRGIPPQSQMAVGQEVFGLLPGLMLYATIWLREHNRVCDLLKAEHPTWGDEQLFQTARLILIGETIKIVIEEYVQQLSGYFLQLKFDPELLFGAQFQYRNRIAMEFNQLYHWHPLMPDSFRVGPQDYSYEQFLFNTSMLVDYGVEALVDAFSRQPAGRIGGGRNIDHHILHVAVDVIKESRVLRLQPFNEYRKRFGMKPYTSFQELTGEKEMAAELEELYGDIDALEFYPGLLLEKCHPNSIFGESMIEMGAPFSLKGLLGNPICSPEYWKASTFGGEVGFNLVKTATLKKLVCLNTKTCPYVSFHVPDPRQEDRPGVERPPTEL
Experimental: The assay was terminated by the addition of TCA, and COX activity was determined by absorbance at 530 nm.

[3] = test system: SW-480 colon adenocarcinoma cells; test: Apoptosis, DNA fragmentation (Cell Death Detection ELISA plus); type: cell-based; conditions: at 100 μM; SW-480 cells, 48 hrs incubation
Experimental: Apoptosis was measured based on the amount of fragmented DNA contained in cell lysates. Briefly, SW-480 colon adenocarcinoma cells were plated in 96-well microtitre plates (“MTP”) at a density of 10K cells/well in 180 μl and were incubated for 24 hrs. Cells were then treated with 20 μl aliquots of appropriately diluted compound, and allowed to incubate for an additional 48 hrs.
After the incubation, samples were prepared according to the following steps. The MTP was centrifuged (15 min., 1000 rpm) and the supernatant was carefully removed by fast inversion of the MTP. […] Samples were analyzed immediately, because storage at 4° C. or −20° C. reduces the ELISA-signals.
Samples were then processed according to a DNA fragmentation assay protocol, and dose-response curves were generated based on optical density readings. Quantification of DNA was done by a commercially available photometric enzyme-immunoassay manufactured by Mannheim-Boehringer under the name “Cell Death Detection ELISA^plus”. The assay is based on a quantitative sandwich-enzyme-immunoassay-principle using mouse monoclonal antibodies directed against DNA and histones, respectively. […] After removal of unbound antibodies by a washing step, the amount of nucleosomes is quantified by the POD retained in the immunocomplex. POD is determined photometrically with ABTS® (2,2′-Azino-di[3-ethylbenzthiazolin-sulfonate) as substrate. […]

O=C1C(=Cc2ccccc2)c2ccccc2N1Cc1ccc(F)cc1 [Example 1, (Z, E) 1-(4-Fluorobenzyl)-3-Benzylidene-Indolin-2-One]
IC50 [1]: ~7.3 µM | COX I % Inhibition (100 μM) [2]: <25% | fold stimulation (apoptosis, fragmented DNA) [3]: 6 fold
